From publication PMC7902338 (Pharmaceutical Research, 2021)
Read-outs that look alike come from different tables or passages of the source.

Assays:
[1] = mean ± SD
Description: Blood was centrifuged to obtain plasma, the liver and the kidneys were removed and urine was collected. Proteins were precipitated by the addition of acetonitrile (1 μL/μL plasma; 1000 μL for the liver, 200 μL for the kidneys and 0.5 μL/μL urine). All solutions were vortexed and centrifuged. […] Detection was performed by placing the TLC plates on multisensitive phosphor screens (PerkinElmer Life Sciences, Waltham, MA). The screens were scanned at 300 dpi resolution using a PerkinElmer Cyclone® Plus Phosphor Imager (Perkin-Elmer Life Sciences).
(§1) PET imaging was performed under isoflurane/air anesthesia and animals were warmed throughout the experiment while constantly monitoring body temperature and respiratory rate. A microPET Focus220 scanner (Siemens Medical Solutions, Knoxville, TN, USA) was used for PET imaging. […] List mode data were acquired with a timing window of 6 ns and an energy window of 250–750 keV. At the end of the PET scans, blood was collected from the retro-bulbar plexus and animals were killed by cervical dislocation. Blood was centrifuged to obtain plasma and aliquots of blood and plasma were counted for radioactivity in a gamma counter.

[2] = tested on: cation transporters (OCTs, MATEs); assay: [^11C]Metoclopramide PET in C57BL/6 wild-type mice without and with unlabeled metoclopramide, cimetidine or sulpiride
Description: as §1
Using the medical image data examiner software AMIDE ([33]), the left ventricle of the heart (image-derived arterial blood curve), brain, liver, left kidney and urinary bladder were manually outlined as regions of interest on the PET images, guided by representative magnetic resonance images obtained for a few animals on a 1-T benchtop MR scanner (ICON; Bruker BioSpin GmbH), to derive concentration-time curves expressed in units of percent injected dose per mL (%ID/mL).
The area under the concentration-time curves (AUC, %ID/mL x min) was calculated for each region of interest using Prism 8 Software (GraphPad, La Jolla, CA, USA). […] VE is the y-intercept of the integration plot. CLint,urine was obtained by performing linear regression analysis of a plot of Xint,urine versus AUC0-t,kidney and calculating the slope of the regression line.
The plasma concentration was obtained by multiplying the concentration in the left ventricle of the heart by the plasma/blood radioactivity ratio, determined from the blood sample collected at the end of the PET scan.

mouse OCTs = details: read-out: inhibition constant Ki; cited from earlier work
CYP2D6 [3] = details: cimetidine ref 39; metoclopramide ref 10, 11; cited from earlier work
mouse MATEs = details: read-out: inhibition constant Ki; cited from earlier work
[4] = tested on: human P-glycoprotein (P-gp/ABCB1); details: cited from earlier work
[5] = single oral or intravenous dose; cited from earlier work
CYP2D6 [6] = tested on: CYP2D6; parameters: method as in PMID 21740075; details: orally administered, humans, estimated; cited from earlier work
[7] = cited from earlier work
human OCT1 = details: cited from earlier work
[8] = C57BL/6 female mice, baseline, 15 min after radiotracer injection
[9] = C57BL/6 female mice, cimetidine (150 mg/kg), 15 min
[10] = FVB male/female Slc22a1/2^(−/−) mice, 15 min
[11] = FVB male/female wild-type mice, 15 min
[12] = integration plot 0.4 to 4 min, range over baseline and treatment groups, C57BL/6 mice

## CCN(CC)CCNC(=O)c1cc(Cl)c(N)cc1O[11CH3] [[^11C]metoclopramide]
[1]; [8]
  Percentage of unchanged [^11C]metoclopramide in kidney: 64 ± 6%
  Percentage of unchanged [^11C]metoclopramide in urine: 29 ± 4%
[1]; [9]
  Percentage of unchanged [^11C]metoclopramide in kidney: 96 ± 2 %
  Percentage of unchanged [^11C]metoclopramide in urine: 87 ± 4 %
[1]; C57BL/6 female mice, co-administration of unlabeled metoclopramide (5 mg/kg), 15 min
  Percentage of unchanged [^11C]metoclopramide in kidney: 74 ± 4%
[1]; C57BL/6 female mice, sulpiride (25 mg/kg), 15 min
  Percentage of unchanged [^11C]metoclopramide in urine: 36 ± 5%
[1]; [10]
  Percentage of unchanged [^11C]metoclopramide in kidney: 72 ± 8%
  Percentage of unchanged [^11C]metoclopramide in urine: 48 ± 10%
[1]; [11]
  Percentage of unchanged [^11C]metoclopramide in kidney: 70 ± 20%
  Percentage of unchanged [^11C]metoclopramide in urine: 64 ± 22%
[2]; C57BL/6 wild-type mice, assuming average mouse organ volumes from literature
  Maximum amount of radioactivity in the kidneys: approximately 17 % of the injected dose
[2]; C57BL/6 wild-type mice, i.v. microdose
  Time to maximum concentration of radioactivity in the kidneys and liver: ≤ 5 min
[2]; end of the 90-min PET scan
  Amount of radioactivity excreted into the urinary bladder: approximately 45 % of the injected dose
[2]; [12]
  kuptake,kidney (rate constant for uptake of total radioactivity from blood into the kidneys): 0.5–1 mL/min/mL kidney
  kuptake,liver (rate constant for uptake of total radioactivity from blood into the liver): 0.2–0.6 mL/min/mL liver
[2]; the different investigated treatments vs baseline, wild-type mice
  Decrease of urinary excretion: up to 3.8 fold

## CN/C(=N/CCSCc1nc[nH]c1C)NC#N [cimetidine]
Mouse OCTs
  Ki: 54 to 143 µM
CYP2D6 [3]
  CYP2D6 inhibition: potent
Mouse MATEs
  Ki: 1 to 4 µM

## CCN(CC)CCNC(=O)c1cc(Cl)c(N)cc1OC [metoclopramide]
[4]
  Substrate of human P-gp: weak substrate
[5]
  Fraction of dose excreted unchanged in urine: Approximately 20%
CYP2D6 [6]
  Share of total clearance accounted for by CYP2D6 metabolism: 44%
CYP2D6 [3]
  CYP2D6 inhibition: potent inhibitor
[7]
  pKa: 9.71
[7]; physiological pH
  Fraction in protonated form: more than 99%
Human OCT1; human OCT1 transfected cell line
  Share of cellular uptake related to OCT1 activity: 45%
Human OCT1; in vitro
  Substrate of human OCT1: substrate
